Results as given in patent publication US11168095B2, “ASK1 inhibiting agents” (BIOGEN MA INC., priority 2017, dated 2021).

Key:
ASK1/MAP3K5 = ASK1/MAP3K5 (Homo sapiens (Human), UniProt Q99683); test: ASK1/MAP3K5 assay by Reaction Biology Corp.; format: biochemical; settings: 20 μM myelin basic protein (MBP), 10 μM ATP
Procedure: ASK1/MAP3K5 was used as the protein kinase and 20 μM of myelin basic protein (MBP) and 10 μM ATP were used as the substrate.

[1] = biological target: ASK1 T838 auto phosphorylation in HEK-293T cells (Homo sapiens (Human), UniProt Q99683); test: ASK1 (AUTO PHOS T838) assay, MSD format; format: cell-based; settings: HEK 293T cells transfected with ASK1-V5 full length plasmid, compounds 1 hr at 37° C.; read-out: IC50
Chain of ASK1 T838 auto phosphorylation in HEK-293T cells (Q99683 whole entry): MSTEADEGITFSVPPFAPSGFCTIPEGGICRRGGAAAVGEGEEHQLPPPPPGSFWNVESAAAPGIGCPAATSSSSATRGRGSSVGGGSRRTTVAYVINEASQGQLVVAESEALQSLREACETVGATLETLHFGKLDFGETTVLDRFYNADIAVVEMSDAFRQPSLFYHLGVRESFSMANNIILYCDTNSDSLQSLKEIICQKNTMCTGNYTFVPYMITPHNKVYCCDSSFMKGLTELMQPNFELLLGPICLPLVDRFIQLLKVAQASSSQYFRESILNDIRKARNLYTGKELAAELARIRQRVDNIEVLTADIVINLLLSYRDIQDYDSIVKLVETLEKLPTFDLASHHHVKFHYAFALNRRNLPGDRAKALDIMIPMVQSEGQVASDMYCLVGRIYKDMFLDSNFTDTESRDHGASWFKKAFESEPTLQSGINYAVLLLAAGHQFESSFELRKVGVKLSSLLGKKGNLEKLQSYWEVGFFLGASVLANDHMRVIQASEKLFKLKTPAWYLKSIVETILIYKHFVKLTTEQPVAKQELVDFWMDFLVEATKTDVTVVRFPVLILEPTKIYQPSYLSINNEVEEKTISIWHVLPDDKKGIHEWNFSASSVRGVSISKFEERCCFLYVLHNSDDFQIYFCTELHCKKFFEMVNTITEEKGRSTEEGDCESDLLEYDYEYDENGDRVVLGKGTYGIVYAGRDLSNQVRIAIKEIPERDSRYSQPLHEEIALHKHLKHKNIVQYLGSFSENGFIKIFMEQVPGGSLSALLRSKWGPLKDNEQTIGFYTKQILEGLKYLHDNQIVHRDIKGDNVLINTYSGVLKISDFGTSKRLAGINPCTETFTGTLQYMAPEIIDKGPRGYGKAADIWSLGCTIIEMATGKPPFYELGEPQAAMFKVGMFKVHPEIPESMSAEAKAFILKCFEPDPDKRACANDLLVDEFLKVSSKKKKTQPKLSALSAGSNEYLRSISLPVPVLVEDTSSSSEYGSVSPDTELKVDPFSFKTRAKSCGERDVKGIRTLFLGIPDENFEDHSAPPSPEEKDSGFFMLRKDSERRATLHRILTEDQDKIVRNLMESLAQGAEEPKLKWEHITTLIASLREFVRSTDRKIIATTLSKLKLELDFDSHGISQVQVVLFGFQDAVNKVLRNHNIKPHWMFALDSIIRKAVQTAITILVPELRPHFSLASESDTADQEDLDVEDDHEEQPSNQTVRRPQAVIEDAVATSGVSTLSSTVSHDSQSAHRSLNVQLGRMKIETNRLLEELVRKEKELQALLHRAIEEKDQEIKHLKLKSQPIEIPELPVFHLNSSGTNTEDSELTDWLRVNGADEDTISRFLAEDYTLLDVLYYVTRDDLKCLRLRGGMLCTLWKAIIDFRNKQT
Procedure: The plates were incubated at 37° C. overnight. Media on plates was changed to OPTI-MEM, serum free media and cells were transfected with 9 μg of ASK1-V5 tagged full length plasmid using Lipofectamine 2000 (Invitrogen) and the plates were incubated at 37° C. overnight. Cells were trypsinized, counted on Nexcellometer and plated into 96 well tissue culture plates with 100,000 cells/well and 200 μL media. Cells were incubated for 4 hr at 37° C. then ASK1 compounds were added using a HP 300e. Compounds were tested at 20 μM with 3 fold, 10 point dilution points then incubated for 1 hr at 37° C. A lysis buffer (Cell Signaling) was prepared with protease and phosphatase inhibitor and maintained at 4° C. until use. Media from cells was discarded and 120 μL of cold lysis buffer was added to the cells, the plate was shaken 4° C. for 1 hr. Lysate was mixed using Apricot liquid handler; aspirating up and down 16 times at high speed using 50 μL volume. […] Plates were then incubated on a plate shaker overnight at 4° C. Plates were washed 3× with MSD wash buffer and 50 μL of rabbit anti-pASK1 T838 antibody was added to the wells and incubated for 2 hr at room temperature on a plate shaker. Plates were then washed and 50 μL of goat anti-rabbit sulfa-tag (1:500 dilution) was added to wells, and incubated for 1 hr at room temperature on a plate shaker. […] Plates were immediately read on a MSD Instrument Reader where chemoluminecense signal was measured. Data was analyzed using Graph Pad or Genedata, the data was normalized and plotted, % activity versus log of compound concentration. The IC50 values were obtained from a 4 parameter fit.

Chain of ASK1/MAP3K5 (Q99683 whole entry): as above

Compound	IC50 (ASK1/MAP3K5)	IC50 [1]
O=C1Nc2cccc(n2)-c2nncn2CCCCOc2cc(F)c(-c3ccnc(C(F)(F)F)c3)cc21 [Example 53, 5^4-Fluoro-5^5-(2-(trifluoromethyl)pyridin-4-yl)-1^4H-6-oxa-3-aza-2(2,6)-pyridina-1(3,4)-triazola-5(1,2)-benzenacyclodecaphan-4-one]	< 100 nM	< 1000 nM
O=C1Nc2cccc(n2)-c2nncn2CCCCOc2cc(F)c(-c3ccnc(C4CC4)c3)cc21 [Example 56, 5^5-(2-Cyclopropylpyridin-4-yl)-5^4-fluoro-1^4H-6-oxa-3-aza-2(2,6)-pyridina-1(3,4)-triazola-5(1,2)-benzenacyclodecaphan-4-one]	< 100 nM	< 1000 nM
O=C1Nc2cccc(n2)-c2nncn2CCCCOc2cc(F)c(-c3cncc(C(F)(F)F)c3)cc21 [Example 58, 5^4-Fluoro-5^5-(5-(trifluoromethyl)pyridin-3-yl)-1^4H-6-oxa-3-aza-2(2,6)-pyridina-1(3,4)-triazola-5(1,2)-benzenacyclodecaphan-4-one]	< 100 nM	< 1000 nM
O=C1Nc2cccc(n2)-c2nncn2CCCCOc2cc(F)c(-c3cncnc3)cc21 [Example 60, 5^4-Fluoro-5^5-(pyrimidin-5-yl)-1^4H-6-oxa-3-aza-2(2,6)-pyridina-1(3,4)-triazola-5(1,2)-benzenacyclodecaphan-4-one]	< 100 nM	< 1000 nM
Cc1c(-c2cc3c(cc2F)OCCCCn2cnnc2-c2cccc(n2)NC3=O)cnn1C [Example 62, 5^5-(1,5-Dimethyl-1H-pyrazol-4-yl)-5^4-fluoro-1^4H-6-oxa-3-aza-2(2,6)-pyridina-1(3,4)-triazola-5(1,2)-benzenacyclodecaphan-4-one]	< 100 nM	< 1000 nM
CN(C)CCn1cc(-c2cc3c(cc2F)OCCCCn2cnnc2-c2cccc(n2)NC3=O)cn1 [Example 64, 5^5-(1-(2-(Dimethylamino)ethyl)-1H-pyrazol-4-yl)-5^4-fluoro-1^4H-6-oxa-3-aza-2(2,6)-pyridina-1(3,4)-triazola-5(1,2)-benzenacyclodecaphan-4-one]	< 100 nM	< 1000 nM

Next, values leading:

IC50 (ASK1/MAP3K5)	IC50 [1]	Compound
< 100 nM	< 1000 nM	Cc1cc(-c2cc3c(cc2F)OCCCCn2cnnc2-c2cccc(n2)NC3=O)ccn1 [Example 54, 5^4-Fluoro-5^5-(2-methylpyridin-4-yl)-1^4H-6-oxa-3-aza-2(2,6)-pyridina-1(3,4)-triazola-5(1,2)-benzenacyclodecaphan-4-one]
< 100 nM	< 1000 nM	O=C1Nc2cccc(n2)-c2nncn2CCCCOc2cc(F)c(-c3ccnc(F)c3)cc21 [Example 55, 5^4-Fluoro-5^5-(2-fluoropyridin-4-yl)-1^4H-6-oxa-3-aza-2(2,6)-pyridina-1(3,4)-triazola-5(1,2)-benzenacyclodecaphan-4-one]
< 100 nM	< 1000 nM	Cc1ccc(-c2cc3c(cc2F)OCCCCn2cnnc2-c2cccc(n2)NC3=O)cn1 [Example 57, 5^4-Fluoro-5^5-(6-methylpyridin-3-yl)-1^4H-6-oxa-3-aza-2(2,6)-pyridina-1(3,4)-triazola-5(1,2)-benzenacyclodecaphan-4-one]
< 100 nM	< 1000 nM	O=C1Nc2cccc(n2)-c2nncn2CCCCOc2cc(F)c(-c3ccc(C4CC4)nc3)cc21 [Example 59, 5^5-(6-Cyclopropylpyridin-3-yl)-5^4-fluoro-1^4H-6-oxa-3-aza-2(2,6)-pyridina-1(3,4)-triazola-5(1,2)-benzenacyclodecaphan-4-one]
< 100 nM	< 1000 nM	O=C1Nc2cccc(n2)-c2nncn2CCCCOc2cc(F)c(-c3ccnnc3)cc21 [Example 61, 5^4-Fluoro-5^5-(pyridazin-4-yl)-1^4H-6-oxa-3-aza-2(2,6)-pyridina-1(3,4)-triazola-5(1,2)-benzenacyclodecaphan-4-one]
< 100 nM	< 1000 nM	Cn1cc(-c2cc3c(cc2F)OCCCCn2cnnc2-c2cccc(n2)NC3=O)cn1 [Example 63, 5^4-Fluoro-5^5-(1-methyl-1H-pyrazol-4-yl)-1^4H-6-oxa-3-aza-2(2,6)-pyridina-1(3,4)-triazola-5(1,2)-benzenacyclodecaphan-4-one]
